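How tested: cells in 96-well plates exposed to compound for 48 hours at five concentrations. GI50 = concentration required for 50% inhibition of growth. Definition used: TGI = concentration required for complete inhibition of growth.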
Legend:
Assay in all cases: growth of human tumour cells (NCI), 48 h
SF-268 CNS = test system: SF-268 CNS
NCI-H226 lung = test system: NCI-H226 lung
HCT-116 colon = test system: HCT-116 colon
HS 578T breast = test system: HS 578T breast
MDA-MB-231 breast = test system: MDA-MB-231 breast
SK-OV-3 ovarian = test system: SK-OV-3 ovarian
K-562 leukemia = test system: K-562 leukemia
RPMI-8226 leukemia = test system: RPMI-8226 leukemia
UACC-62 melanoma = test system: UACC-62 melanoma
OVCAR-3 ovarian = test system: OVCAR-3 ovarian
ACHN renal = test system: ACHN renal
SNB-19 CNS = test system: SNB-19 CNS
MDA-MB-468 breast = test system: MDA-MB-468 breast
HOP-92 NSCLC = test system: HOP-92 NSCLC
T-47D breast = test system: T-47D breast
UACC-257 melanoma = test system: UACC-257 melanoma
BT-549 breast = test system: BT-549 breast
LOX IMVI melanoma = test system: LOX IMVI melanoma
DU-145 prostate = test system: DU-145 prostate
SK-MEL-28 melanoma = test system: SK-MEL-28 melanoma
TK-10 renal = test system: TK-10 renal
SR leukemia = test system: SR leukemia
SK-MEL-5 melanoma = test system: SK-MEL-5 melanoma
SF-295 CNS = test system: SF-295 CNS
SNB-75 CNS = test system: SNB-75 CNS
HT29 colon = test system: HT29 colon
SN12C renal = test system: SN12C renal
KM12 colon = test system: KM12 colon
IGROV1 ovarian = test system: IGROV1 ovarian
HOP-62 NSCLC = test system: HOP-62 NSCLC
HCC-2998 colon = test system: HCC-2998 colon
OVCAR-8 ovarian = test system: OVCAR-8 ovarian
MALME-3M melanoma = test system: MALME-3M melanoma
NCI/ADR-RES ovarian = test system: NCI/ADR-RES ovarian
UO-31 renal = test system: UO-31 renal
A549 NSCLC = test system: A549 NSCLC
MCF7 breast = test system: MCF7 breast
CAKI-1 renal = test system: CAKI-1 renal
M14 melanoma = test system: M14 melanoma
NCI-H460 lung = test system: NCI-H460 lung
A498 renal = test system: A498 renal
EKVX NSCLC = test system: EKVX NSCLC
786-0 renal = test system: 786-0 renal
RXF 393 renal = test system: RXF 393 renal
SW-620 colon = test system: SW-620 colon
U251 CNS = test system: U251 CNS
NCI-H23 lung = test system: NCI-H23 lung
PC-3 prostate = test system: PC-3 prostate
SF-539 CNS = test system: SF-539 CNS
OVCAR-4 ovarian = test system: OVCAR-4 ovarian
MDA-MB-435 = test system: MDA-MB-435
CCRF-CEM leukemia = test system: CCRF-CEM leukemia
HL-60(TB) leukemia = test system: HL-60(TB) leukemia
SK-MEL-2 melanoma = test system: SK-MEL-2 melanoma
HCT-15 colon = test system: HCT-15 colon
COLO 205 colon = test system: COLO 205 colon
MOLT-4 leukemia = test system: MOLT-4 leukemia
NCI-H522 lung = test system: NCI-H522 lung
OVCAR-5 ovarian = test system: OVCAR-5 ovarian

## COc1ccc(N=Nc2c(N)nn3c(-c4cc5cc(Br)ccc5oc4=O)ccnc23)cc1
SF-268 CNS
  GI50: 3.72 µM
  TGI: 20 µM
NCI-H226 lung
  GI50: 3.72 µM
  TGI: 14.5 µM
HCT-116 colon
  GI50: 3.69 µM
  TGI: 12.4 µM
HS 578T breast
  GI50: 3.08 µM
  TGI: > 100 µM
MDA-MB-231 breast
  GI50: 2.9 µM
  TGI: 10.1 µM
SK-OV-3 ovarian
  GI50: 3.67 µM
  TGI: 10.7 µM
K-562 leukemia
  GI50: 11.1 µM
  TGI: > 100 µM
RPMI-8226 leukemia
  GI50: 10.9 µM
  TGI: > 100 µM
UACC-62 melanoma
  GI50: 2.98 µM
  TGI: 12.1 µM
OVCAR-3 ovarian
  GI50: 3.85 µM
  TGI: > 100 µM
ACHN renal
  GI50: 2.52 µM
  TGI: 7.17 µM
SNB-19 CNS
  GI50: 4.05 µM
  TGI: 16.3 µM
MDA-MB-468 breast
  GI50: 1.86 µM
  TGI: 6.2 µM
HOP-92 NSCLC
  GI50: 2.48 µM
  TGI: 7.25 µM
T-47D breast
  GI50: 3.12 µM
  TGI: 13.5 µM
UACC-257 melanoma
  GI50: 7.3 µM
  TGI: 32 µM
BT-549 breast
  GI50: 4.38 µM
  TGI: 14.8 µM
LOX IMVI melanoma
  GI50: 4.72 µM
  TGI: 16.4 µM
DU-145 prostate
  GI50: 5.43 µM
  TGI: > 100 µM
SK-MEL-28 melanoma
  GI50: 4.78 µM
  TGI: 19 µM
TK-10 renal
  GI50: 7.89 µM
  TGI: 24.8 µM
SR leukemia
  GI50: 99.7 µM
  TGI: > 100 µM
SK-MEL-5 melanoma
  GI50: 3.56 µM
  TGI: 13.6 µM
SF-295 CNS
  GI50: 2.7 µM
  TGI: 8.53 µM
SNB-75 CNS
  GI50: 1.73 µM
  TGI: 5.34 µM
HT29 colon
  GI50: 3.51 µM
  TGI: > 100 µM
SN12C renal
  GI50: 3.21 µM
  TGI: 14.1 µM
KM12 colon
  GI50: 4.17 µM
  TGI: > 100 µM
IGROV1 ovarian
  GI50: 6.28 µM
  TGI: 22.8 µM
HOP-62 NSCLC
  GI50: 2.09 µM
  TGI: 5.21 µM
HCC-2998 colon
  GI50: 4.63 µM
  TGI: 23.6 µM
OVCAR-8 ovarian
  GI50: 2.93 µM
  TGI: 11.1 µM
MALME-3M melanoma
  GI50: 3 µM
  TGI: 11.6 µM
NCI/ADR-RES ovarian
  GI50: 3.42 µM
  TGI: 13.1 µM
UO-31 renal
  GI50: 3.33 µM
  TGI: 15.4 µM
A549 NSCLC
  GI50: 3.7 µM
  TGI: 16.9 µM
MCF7 breast
  GI50: 3.5 µM
  TGI: 16.4 µM
CAKI-1 renal
  GI50: 3.47 µM
  TGI: 15.5 µM
M14 melanoma
  GI50: 12.5 µM
  TGI: > 100 µM
NCI-H460 lung
  GI50: 2.96 µM
  TGI: 11.1 µM
A498 renal
  GI50: 2.64 µM
  TGI: 9.09 µM
EKVX NSCLC
  GI50: 9.79 µM
  TGI: 35.5 µM
786-0 renal
  GI50: 2.36 µM
  TGI: 5.9 µM
RXF 393 renal
  GI50: 2.34 µM
  TGI: 7 µM
SW-620 colon
  GI50: 5.86 µM
  TGI: 59.6 µM
U251 CNS
  GI50: 1.89 µM
  TGI: 4.24 µM
NCI-H23 lung
  GI50: 2.98 µM
  TGI: 10.1 µM
PC-3 prostate
  GI50: 4.56 µM
  TGI: 71.5 µM
SF-539 CNS
  GI50: 2.54 µM
  TGI: 6.26 µM
OVCAR-4 ovarian
  GI50: 3.69 µM
  TGI: 19.3 µM
MDA-MB-435
  GI50: 7.87 µM
  TGI: > 100 µM
CCRF-CEM leukemia
  GI50: > 100 µM
  TGI: > 100 µM
HL-60(TB) leukemia
  GI50: > 100 µM
  TGI: > 100 µM
SK-MEL-2 melanoma
  GI50: 4.01 µM
  TGI: 18.2 µM
HCT-15 colon
  GI50: 4.63 µM
  TGI: 79.8 µM
COLO 205 colon
  GI50: 6.15 µM
  TGI: 52.3 µM
MOLT-4 leukemia
  GI50: > 100 µM
  TGI: > 100 µM
NCI-H522 lung
  GI50: 2.07 µM
  TGI: 6.43 µM
OVCAR-5 ovarian
  GI50: 4.86 µM
  TGI: 33.8 µM
